What all share (type): biochemical
The target of one assay is Jarid1A (Homo sapiens (Human), UniProt P29375). Description: Jarid1A in vitro enzyme inhibition assay (TR-FRET). The text has this: The enzymatic assay of Jarid1A activity is based upon Time Resolved-Fluorescence Resonance Energy Transfer (TR-FRET) detection.
(In general: In TR-FRET formats the signal depends on donor and acceptor labels being close together.)

The next assay concerns the target Jarid1B (Homo sapiens (Human), UniProt Q9UGL1). Description: Jarid1B in vitro enzyme inhibition assay (TR-FRET).
For another assay, the target named is JMJD2C (Homo sapiens (Human), UniProt Q9H3R0). Description: JMJD2C in vitro enzyme inhibition assay (TR-FRET).
For the next assay, the target named is FBXL10 (Homo sapiens (Human), UniProt Q8NHM5). Description: FBXL10 in vitro enzyme inhibition assay (AlphaScreen). As for the experimental part: Reaction product was determined quantitatively by AlphaScreen detection after the addition of detection reagents anti-H3K36me1 antibody, AlphaScreen® Streptavidin-coated Donor beads, and AlphaScreen® Protein A Acceptor beads in 50 mM HEPES, pH7.3, 10 mM NaCl, 0.005% Brij35, 5 mM EDTA, 2 mg/ml BSA to final 10 μg/ml beads.
Plates were incubated at room temperature for 40 minutes, followed by addition of 3 μl of 50 μg/ml AlphaScreen® Streptavidin-coated Donor beads and AlphaScreen® Protein A Acceptor beads in 50 mM HEPES, pH7.3, 10 mM NaCl, 0.005% Brij35, 5 mM EDTA, 2 mg/ml BSA. Plates were read by EnVisionMultilabel Reader in AlphaScreen mode after a minimum of 2 hour or up to overnight incubation at room temperature. The AlphaScreen signal for each well was used to determine inhibition constant (IC50).
In general terms: Bead proximity is the source of the signal in Alpha formats.

These results are taken from patent US9604961B2, “Histone demethylase inhibitors” (Celgene Quanticel Research, Inc., priority 2012, dated 2017).

Sequence of Jarid1A (P29375 1-1090): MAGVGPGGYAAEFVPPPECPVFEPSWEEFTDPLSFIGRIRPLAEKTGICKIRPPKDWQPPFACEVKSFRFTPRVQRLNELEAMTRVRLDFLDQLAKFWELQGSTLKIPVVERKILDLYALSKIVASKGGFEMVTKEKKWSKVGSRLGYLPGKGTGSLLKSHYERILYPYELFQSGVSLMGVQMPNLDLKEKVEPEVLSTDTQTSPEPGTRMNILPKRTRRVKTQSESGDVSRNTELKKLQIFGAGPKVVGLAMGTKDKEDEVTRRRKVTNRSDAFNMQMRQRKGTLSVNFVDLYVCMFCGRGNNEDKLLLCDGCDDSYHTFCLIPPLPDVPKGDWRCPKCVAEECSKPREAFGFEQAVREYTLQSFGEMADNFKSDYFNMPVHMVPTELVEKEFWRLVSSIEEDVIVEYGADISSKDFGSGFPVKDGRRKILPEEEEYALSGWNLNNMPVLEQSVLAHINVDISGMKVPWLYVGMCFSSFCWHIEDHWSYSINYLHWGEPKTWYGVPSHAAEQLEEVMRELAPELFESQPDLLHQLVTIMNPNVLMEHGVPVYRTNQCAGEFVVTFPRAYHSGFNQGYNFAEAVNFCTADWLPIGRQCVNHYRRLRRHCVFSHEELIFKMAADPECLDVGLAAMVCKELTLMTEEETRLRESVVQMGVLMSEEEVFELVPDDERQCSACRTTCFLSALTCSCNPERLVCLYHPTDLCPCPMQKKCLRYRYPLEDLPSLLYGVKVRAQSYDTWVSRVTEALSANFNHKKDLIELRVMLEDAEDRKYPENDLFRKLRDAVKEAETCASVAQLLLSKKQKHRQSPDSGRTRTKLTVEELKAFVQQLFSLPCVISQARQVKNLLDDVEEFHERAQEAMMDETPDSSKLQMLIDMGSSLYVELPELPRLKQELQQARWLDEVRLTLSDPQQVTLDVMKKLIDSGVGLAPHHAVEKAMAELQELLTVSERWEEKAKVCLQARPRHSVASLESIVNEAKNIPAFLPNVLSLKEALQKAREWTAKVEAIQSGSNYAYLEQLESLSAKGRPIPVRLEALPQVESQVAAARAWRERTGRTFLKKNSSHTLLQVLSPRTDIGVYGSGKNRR
Sequence of JMJD2C (Q9H3R0 2-372): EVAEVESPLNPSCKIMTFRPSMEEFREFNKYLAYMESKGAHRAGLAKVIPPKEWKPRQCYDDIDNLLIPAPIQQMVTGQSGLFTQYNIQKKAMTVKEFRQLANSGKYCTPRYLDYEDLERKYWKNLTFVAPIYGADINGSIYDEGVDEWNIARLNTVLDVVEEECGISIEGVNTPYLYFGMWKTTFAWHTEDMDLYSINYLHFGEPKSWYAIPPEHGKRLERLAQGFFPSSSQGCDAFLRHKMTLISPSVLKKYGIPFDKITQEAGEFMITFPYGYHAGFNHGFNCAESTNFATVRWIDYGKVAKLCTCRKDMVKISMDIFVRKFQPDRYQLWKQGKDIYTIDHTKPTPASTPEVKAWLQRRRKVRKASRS
Sequence of Jarid1B (Q9UGL1 2-751): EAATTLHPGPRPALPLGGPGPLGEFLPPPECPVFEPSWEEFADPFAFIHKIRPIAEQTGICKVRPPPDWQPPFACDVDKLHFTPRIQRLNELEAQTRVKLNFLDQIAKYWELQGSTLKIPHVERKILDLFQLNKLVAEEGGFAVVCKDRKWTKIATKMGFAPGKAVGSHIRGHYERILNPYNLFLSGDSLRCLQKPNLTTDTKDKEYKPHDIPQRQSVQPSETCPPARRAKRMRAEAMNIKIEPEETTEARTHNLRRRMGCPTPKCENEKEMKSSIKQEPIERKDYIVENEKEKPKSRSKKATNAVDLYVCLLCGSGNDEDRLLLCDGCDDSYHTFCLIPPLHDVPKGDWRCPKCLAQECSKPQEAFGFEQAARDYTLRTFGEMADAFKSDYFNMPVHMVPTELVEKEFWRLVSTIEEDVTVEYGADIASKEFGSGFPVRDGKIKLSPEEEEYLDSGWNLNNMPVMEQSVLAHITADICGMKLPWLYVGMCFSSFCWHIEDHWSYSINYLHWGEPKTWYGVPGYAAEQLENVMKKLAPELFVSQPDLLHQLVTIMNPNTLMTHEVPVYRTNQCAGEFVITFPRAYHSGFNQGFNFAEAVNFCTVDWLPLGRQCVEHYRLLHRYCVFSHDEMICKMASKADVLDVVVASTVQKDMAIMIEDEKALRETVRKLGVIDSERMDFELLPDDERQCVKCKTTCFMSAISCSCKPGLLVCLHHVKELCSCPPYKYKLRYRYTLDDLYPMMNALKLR
Sequence of FBXL10 (Q8NHM5 1-650): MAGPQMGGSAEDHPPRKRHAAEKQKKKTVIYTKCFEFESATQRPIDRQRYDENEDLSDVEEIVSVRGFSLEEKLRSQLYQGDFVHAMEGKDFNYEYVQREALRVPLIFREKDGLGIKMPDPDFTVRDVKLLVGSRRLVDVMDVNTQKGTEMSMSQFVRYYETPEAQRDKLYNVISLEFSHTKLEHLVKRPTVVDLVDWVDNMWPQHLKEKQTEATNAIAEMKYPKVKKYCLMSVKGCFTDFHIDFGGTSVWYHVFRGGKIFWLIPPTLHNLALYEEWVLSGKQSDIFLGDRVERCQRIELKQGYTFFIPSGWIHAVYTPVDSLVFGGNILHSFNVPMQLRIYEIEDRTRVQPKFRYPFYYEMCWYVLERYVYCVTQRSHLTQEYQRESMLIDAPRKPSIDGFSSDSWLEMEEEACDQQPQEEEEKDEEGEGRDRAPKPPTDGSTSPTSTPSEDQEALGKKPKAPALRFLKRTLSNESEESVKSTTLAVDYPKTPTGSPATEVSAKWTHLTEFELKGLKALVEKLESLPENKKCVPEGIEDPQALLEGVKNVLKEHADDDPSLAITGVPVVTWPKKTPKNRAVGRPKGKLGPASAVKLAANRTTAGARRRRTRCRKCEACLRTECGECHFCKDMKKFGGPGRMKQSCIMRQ
Method for JMJD2C: Baculovirus expressed JMJD2C (GenBank Accession #BC143571, AA 2-372) was purchased from BPS Bioscience (Cat#50105).
The ability of test compounds to inhibit the activity of JMJD2C was determined in 384-well plate format under the following reaction conditions: 0.3 nM JMJD2C, 300 nM H3K9me3-biotin labeled peptide (Anaspec cat #64360), 2 μM alpha-ketoglutaric acid in assay buffer of 50 mM HEPES, pH7.3, 0.005% Brij35, 0.5 mM TCEP, 0.2 mg/ml BSA, 50 μM sodium L-ascorbate, and 2 μM ammonium iron(II) sulfate. Reaction product was determined quantitatively by TR-FRET after the addition of detection reagent Phycolink Streptavidin-allophycocyanin (Prozyme) and Europium-anti-di-methylated histone H3 lysine 9 (H3K9me2) antibody (PerkinElmer) in the presence of 5 mM EDTA in LANCE detection buffer (PerkinElmer) at a final concentration of 50 nM and 1 nM, respectively.
The assay reaction was initiated by the following: 2 μl of the mixture of 900 nM H3K9me3-biotin labeled peptide and 6 μM alpha-ketoglutaric acid with 2 μl of 11-point serial diluted inhibitor in 3% DMSO were added to each well of the plate, followed by the addition of 2 μl of 0.9 nM JMJD2C to initiate the reaction. The reaction mixture was incubated at room temperature for 30 minutes, and terminated by the addition of 6 μl of 5 mM EDTA in LANCE detection buffer containing 100 nM Phycolink Streptavidin-allophycocyanin and 2 nM Europium-anti-H3K9me2 antibody. Plates were read by EnVisionMultilabel Reader in TR-FRET mode (excitation at 320 nm, emission at 615 nm and 665 nm) after 1 hour incubation at room temperature. A ratio was calculated (665/615) for each well and fitted to determine inhibition constant (IC50).

The term IC50 denotes the point on the concentration scale where inhibition reaches its midpoint. For `Cc1ccc(COc2ccnn2-c2cc(C(=O)O)ccn2)c(F)c1` [Example 131, 2-[5-[(2-fluoro-4-methylphenyl)methoxy]pyrazol-1-yl]pyridine-4-carboxylic acid], the values for the IC50 at Jarid1A, against Jarid1B and on JMJD2C were under 100 nM, under 100 nM and 100 to 1000 nM, respectively.

Take `Cc1ccc(COc2ccnn2-c2cc(C(=O)O)ccn2)c(C#N)c1` [Example 134, 2-[5-[(2-cyano-4-methylphenyl)methoxy]pyrazol-1-yl]pyridine-4-carboxylic acid]: the IC50 was under 100 nM at Jarid1A, under 100 nM against Jarid1B and 100 to 1000 nM at JMJD2C.

Consider `CCc1cc(C)ccc1COc1ccnn1-c1cc(C(=O)O)ccn1` [Example 135, 2-[5-[(2-ethyl-4-methylphenyl)methoxy]pyrazol-1-yl]pyridine-4-carboxylic acid], for which the IC50 was 100 to 1000 nM at Jarid1A, 100 to 1000 nM at Jarid1B and 1000 to 10000 nM against JMJD2C.

With `CC(Oc1cc(Cl)ccc1COc1ccnn1-c1cc(C(=O)O)ccn1)c1ccccc1` (centres unmarked) [Example 136, 2-[5-[[4-chloro-2-(1-phenylethoxy)phenyl]methoxy]pyrazol-1-yl]pyridine-4-carboxylic acid], the IC50 lay in the range of 100 to 1000 nM at Jarid1A, 100 to 1000 nM against Jarid1B and 1000 to 10000 nM at JMJD2C.

On to `CC(Oc1cc(F)ccc1COc1ccnn1-c1cc(C(=O)O)ccn1)c1ccccc1` (centres unmarked) [Example 137, 2-[5-[[4-fluoro-2-(1-phenylethoxy)phenyl]methoxy]pyrazol-1-yl]pyridine-4-carboxylic acid], for which the IC50 against Jarid1A lay within 100 to 1000 nM; at Jarid1B, 100 to 1000 nM; against JMJD2C, 1000 to 10000 nM.

For `O=C(O)c1ccnc(-n2nccc2OCc2ccc(Cl)c(OCc3ccc(F)cc3)c2)c1` [Example 138, 2-[5-[[4-chloro-3-[(4-fluorophenyl)methoxy]phenyl]methoxy]pyrazol-1-yl]pyridine-4-carboxylic acid], the IC50 was under 100 nM on Jarid1A, under 100 nM on Jarid1B and 100 to 1000 nM against JMJD2C.

As to `O=C(O)c1ccnc(-n2nccc2OCc2ccc(Cl)c(OCC(F)(F)F)c2)c1` [Example 141, 2-[5-[[4-chloro-3-(2,2,2-trifluoroethoxy)phenyl]methoxy]pyrazol-1-yl]pyridine-4-carboxylic acid], the IC50 on Jarid1A was under 100 nM; at Jarid1B, under 100 nM; on JMJD2C, 100 to 1000 nM.

In the case of `Cc1cc(Br)ccc1COc1ccnn1-c1cc(C(=O)O)ccn1` [Example 142, 2-[5-[(4-bromo-2-methylphenyl)methoxy]pyrazol-1-yl]pyridine-4-carboxylic acid], the IC50 at Jarid1A, against Jarid1B and against JMJD2C was 100 to 1000 nM throughout.

Consider `COc1cc(Br)ccc1COc1ccnn1-c1cc(C(=O)O)ccn1` [Example 143, 2-[5-[(4-bromo-2-methoxyphenyl)methoxy]pyrazol-1-yl]pyridine-4-carboxylic acid], for which the IC50 on Jarid1A is under 100 nM; on Jarid1B, under 100 nM; against JMJD2C it was 100 to 1000 nM.

As for `Cc1cc(I)ccc1COc1ccnn1-c1cc(C(=O)O)ccn1` [Example 144, 2-[5-[(4-iodo-2-methylphenyl)methoxy]pyrazol-1-yl]pyridine-4-carboxylic acid], the IC50 was under 100 nM at Jarid1A, under 100 nM against Jarid1B and 100 to 1000 nM on JMJD2C.

In the case of `COc1cc(I)ccc1COc1ccnn1-c1cc(C(=O)O)ccn1` [Example 145, 2-[5-[(4-iodo-2-methoxyphenyl)methoxy]pyrazol-1-yl]pyridine-4-carboxylic acid], the values for the IC50 at Jarid1A, against Jarid1B and at JMJD2C were under 100 nM, under 100 nM and 100 to 1000 nM, respectively.

Regarding `O=C(O)c1ccnc(-n2nccc2OC2CCc3cc(F)ccc32)c1` (centres unmarked) [Example 146, 2-[5-[(5-fluoro-2,3-dihydro-1H-inden-1-yl)oxy]pyrazol-1-yl]pyridine-4-carboxylic acid], the IC50 against Jarid1A, against Jarid1B and at JMJD2C was 100 to 1000 nM throughout.

Take `O=C(O)c1ccnc(-n2nccc2OC2CCc3cc(Cl)ccc32)c1` (centres unmarked) [Example 147, 2-[5-[(5-chloro-2,3-dihydro-1H-inden-1-yl)oxy]pyrazol-1-yl]pyridine-4-carboxylic acid]: the values for the IC50 against Jarid1A, at Jarid1B and at JMJD2C were 100 to 1000 nM, 100 to 1000 nM and 1000 to 10000 nM, respectively.

Consider `O=C(O)c1ccnc(-n2nccc2OC2CCCc3cc(F)ccc32)c1` (centres unmarked) [Example 148, 2-[5-[(6-fluoro-1,2,3,4-tetrahydronaphthalen-1-yl)oxy]pyrazol-1-yl]pyridine-4-carboxylic acid], for which the figures for the IC50 against Jarid1A, at Jarid1B and at JMJD2C were 100 to 1000 nM, 100 to 1000 nM and 1000 to 10000 nM, respectively.

Take `O=C(O)c1ccnc(-n2nccc2OC2CCCc3cc(Cl)ccc32)c1` (centres unmarked) [Example 149, 2-[5-[(6-chloro-1,2,3,4-tetrahydronaphthalen-1-yl)oxy]pyrazol-1-yl]pyridine-4-carboxylic acid]: the IC50 at Jarid1A is 100 to 1000 nM; on Jarid1B it was under 100 nM; against JMJD2C, 1000 to 10000 nM.

For `CCc1ccc(COc2ccnn2-c2cc(C(=O)O)ccn2)c(Cl)c1` [Example 150, 2-[5-[(2-chloro-4-ethylphenyl)methoxy]pyrazol-1-yl]pyridine-4-carboxylic acid], the IC50 against Jarid1A is 100 to 1000 nM; at Jarid1B it was 100 to 1000 nM; against JMJD2C, 1000 to 10000 nM.

On to `CCc1ccc(COc2ccnn2-c2cc(C(=O)O)ccn2)c(F)c1` [Example 151, 2-[5-[(4-ethyl-2-fluorophenyl)methoxy]pyrazol-1-yl]pyridine-4-carboxylic acid], for which the IC50 at Jarid1A is 100 to 1000 nM; on Jarid1B it was under 100 nM; against JMJD2C it was 1000 to 10000 nM.

With `O=C(O)c1ccnc(-n2nccc2OCc2ccc(C3CC3)cc2Cl)c1` [Example 152, 2-[5-[(2-chloro-4-cyclopropylphenyl)methoxy]pyrazol-1-yl]pyridine-4-carboxylic acid], the IC50 was 100 to 1000 nM on Jarid1A, 100 to 1000 nM against Jarid1B and 1000 to 10000 nM against JMJD2C.

As to `O=C(O)c1ccnc(-n2nccc2OCc2ccc(C3CC3)cc2F)c1` [Example 153, 2-[5-[(4-cyclopropyl-2-fluorophenyl)methoxy]pyrazol-1-yl]pyridine-4-carboxylic acid], the figures for the IC50 on Jarid1A, at Jarid1B and on JMJD2C were 100 to 1000 nM, 100 to 1000 nM and 1000 to 10000 nM, respectively.

On to `O=C(O)c1ccnc(-n2nccc2OCc2ccc(C3CC3)c(Cl)c2)c1` [Example 154, 2-[5-[(3-chloro-4-cyclopropylphenyl)methoxy]pyrazol-1-yl]pyridine-4-carboxylic acid], for which the IC50 was 100 to 1000 nM against Jarid1A, 100 to 1000 nM at Jarid1B and 1000 to 10000 nM on JMJD2C.

As to `O=C(O)c1ccnc(-n2nccc2OCc2ccc(C3CC3)c(F)c2)c1` [Example 155, 2-[5-[(4-cyclopropyl-3-fluorophenyl)methoxy]pyrazol-1-yl]pyridine-4-carboxylic acid], the figures for the IC50 at Jarid1A, against Jarid1B and against JMJD2C were 100 to 1000 nM, under 100 nM and 1000 to 10000 nM, respectively.

As to `CN(CCc1cnn(-c2cc(C(=O)NC#N)ccn2)c1)Cc1ccc(F)cc1` [Example 157, N-cyano-2-[4-[2-[(4-fluorophenyl)methyl-methylamino]ethyl]pyrazol-1-yl]pyridine-4-carboxamide], the IC50 at Jarid1A, at Jarid1B and against JMJD2C was under 100 nM throughout.

For the compound `O=C(O)c1ccnc(-n2nc(Cc3c(F)cccc3F)cc2O)c1` [Example 161, 2-[3-[(2,6-difluorophenyl)methyl]-5-hydroxypyrazol-1-yl]pyridine-4-carboxylic acid], the IC50 at JMJD2C was 1000 to 10000 nM; on FBXL10, under 100 nM.

Take `CC(c1ccccc1)c1cc(O)n(-c2cc(-c3nnn[nH]3)ccn2)n1` (centres unmarked) [Example 166, 5-(1-phenylethyl)-2-[4-(1H-tetrazol-5-yl)pyridin-2-yl]pyrazol-3-ol]: the results for the IC50 against JMJD2C and at FBXL10 were 1000 to 10000 nM and under 100 nM, respectively.

As to `Oc1cc(Cc2ccccc2Cl)nn1-c1cc(-c2nnn[nH]2)ccn1` [Example 167, 5-[(2-chlorophenyl)methyl]-2-[4-(1H-tetrazol-5-yl)pyridin-2-yl]pyrazol-3-ol], the figures for the IC50 on JMJD2C and at FBXL10 were 1000 to 10000 nM and under 100 nM, respectively.

As to `Oc1cc(Cc2cccc(Cl)c2)nn1-c1cc(-c2nnn[nH]2)ccn1` [Example 168, 5-[(3-chlorophenyl)methyl]-2-[4-(1H-tetrazol-5-yl)pyridin-2-yl]pyrazol-3-ol], the IC50 is 1000 to 10000 nM against JMJD2C and under 100 nM at FBXL10.

Consider `CC(C)(c1ccc(Cl)cc1)c1cc(O)n(-c2cc(C(=O)O)ccn2)n1` [Example 170, 2-[3-[2-(4-chlorophenyl)propan-2-yl]-5-hydroxypyrazol-1-yl]pyridine-4-carboxylic acid], for which the IC50 on JMJD2C was 1000 to 10000 nM; against FBXL10 it was under 100 nM.

Consider `O=C(O)c1ccnc(-n2nc(C3(c4ccc(Cl)cc4)CC3)cc2O)c1` [Example 171, 2-[3-[1-(4-chlorophenyl)cyclopropyl]-5-hydroxypyrazol-1-yl]pyridine-4-carboxylic acid], for which the results for the IC50 against JMJD2C and on FBXL10 were 1000 to 10000 nM and under 100 nM, respectively.

Regarding `O=C(O)c1ccnc(-n2nc(Cc3cc(Cl)cc(Cl)c3)cc2O)c1` [Example 172, 2-[3-[(3,5-dichlorophenyl)methyl]-5-hydroxypyrazol-1-yl]pyridine-4-carboxylic acid], the IC50 lay within 1000 to 10000 nM against JMJD2C and 100 to 1000 nM against FBXL10.
